According to the kinase profiling compilation of Christmann-Franck et al. (2016):
Values joined by “and” are separate entries in the source; they are usually repeats but may differ in a detail not shown here. Identical values can stand only once.

Experiments:
Experiment in all cases: radiometric filter-binding kinase assay, Kinase HotSpot
Details in all cases: compound 0.5 µM; ATP 10 µM
STK17A (human) = STK17A (human) (UniProt Q9UEE5)
SYK (human) = SYK (human) (UniProt P43405)
MAP4K4 (human) = MAP4K4 (human) (UniProt O95819)
IRAK1 (human) = IRAK1 (human) (UniProt P51617)
CSNK1D (human) = CSNK1D (human) (UniProt P48730)
Chain of CSNK1D (human) (P48730 whole entry, looked up): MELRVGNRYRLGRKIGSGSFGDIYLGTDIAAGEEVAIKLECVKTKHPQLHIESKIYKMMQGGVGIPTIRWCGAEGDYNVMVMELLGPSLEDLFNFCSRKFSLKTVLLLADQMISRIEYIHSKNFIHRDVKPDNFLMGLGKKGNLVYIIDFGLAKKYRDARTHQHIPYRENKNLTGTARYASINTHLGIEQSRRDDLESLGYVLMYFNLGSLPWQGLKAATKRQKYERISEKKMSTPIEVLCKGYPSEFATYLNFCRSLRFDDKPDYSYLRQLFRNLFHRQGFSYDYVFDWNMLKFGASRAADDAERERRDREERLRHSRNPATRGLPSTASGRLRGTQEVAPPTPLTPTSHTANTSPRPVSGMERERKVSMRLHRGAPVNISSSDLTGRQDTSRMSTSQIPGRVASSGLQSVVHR

BRSK1 (human) = BRSK1 (human) (UniProt Q8TDC3)
TAOK2 (human) = TAOK2 (human) (UniProt Q9UL54)
MARK2 (human) = MARK2 (human) (UniProt Q7KZI7)
PASK (human) = PASK (human) (UniProt Q96RG2)
EPHA7 (human) = EPHA7 (human) (UniProt Q15375)
GRK6 (human) = GRK6 (human) (UniProt P43250)
Chain of GRK6 (human) (P43250 whole entry, looked up): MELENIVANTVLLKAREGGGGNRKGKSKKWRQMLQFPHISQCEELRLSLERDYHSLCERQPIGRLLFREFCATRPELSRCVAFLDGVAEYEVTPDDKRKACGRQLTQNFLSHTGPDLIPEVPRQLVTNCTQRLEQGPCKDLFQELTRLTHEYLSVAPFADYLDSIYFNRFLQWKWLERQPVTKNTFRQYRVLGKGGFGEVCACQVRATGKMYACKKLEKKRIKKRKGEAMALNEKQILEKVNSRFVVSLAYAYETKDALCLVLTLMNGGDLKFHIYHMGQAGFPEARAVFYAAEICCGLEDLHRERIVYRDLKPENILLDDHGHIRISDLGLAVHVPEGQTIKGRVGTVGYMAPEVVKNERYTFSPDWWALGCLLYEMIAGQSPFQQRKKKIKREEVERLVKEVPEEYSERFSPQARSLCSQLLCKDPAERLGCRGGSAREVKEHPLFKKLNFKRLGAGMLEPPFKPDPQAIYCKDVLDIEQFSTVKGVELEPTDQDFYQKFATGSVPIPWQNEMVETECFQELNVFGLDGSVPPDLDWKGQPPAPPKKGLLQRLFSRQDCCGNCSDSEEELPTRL

AXL (human) = AXL (human) (UniProt P30530)
PIM1 (human) = PIM1 (human) (UniProt P11309)
RAF1 (human) = RAF1 (human) (UniProt P04049)
ADRBK1 (human) = ADRBK1 (human) (UniProt P25098)
STK16 (human) = STK16 (human) (UniProt O75716)
GSG2 (human) = GSG2 (human) (UniProt Q8TF76)
EGFR (human) = EGFR (human) (UniProt P00533)
LYN (human) = LYN (human) (UniProt P07948)
FYN (human) = FYN (human) (UniProt P06241)
CDK2 CCNE1 (human) = CDK2 CCNE1 (human) (UniProt P24941+P24864)
EPHA1 (human) = EPHA1 (human) (UniProt P21709)
PRKCD (human) = PRKCD (human) (UniProt Q05655)
Chain of PRKCD (human) (Q05655 whole entry, looked up): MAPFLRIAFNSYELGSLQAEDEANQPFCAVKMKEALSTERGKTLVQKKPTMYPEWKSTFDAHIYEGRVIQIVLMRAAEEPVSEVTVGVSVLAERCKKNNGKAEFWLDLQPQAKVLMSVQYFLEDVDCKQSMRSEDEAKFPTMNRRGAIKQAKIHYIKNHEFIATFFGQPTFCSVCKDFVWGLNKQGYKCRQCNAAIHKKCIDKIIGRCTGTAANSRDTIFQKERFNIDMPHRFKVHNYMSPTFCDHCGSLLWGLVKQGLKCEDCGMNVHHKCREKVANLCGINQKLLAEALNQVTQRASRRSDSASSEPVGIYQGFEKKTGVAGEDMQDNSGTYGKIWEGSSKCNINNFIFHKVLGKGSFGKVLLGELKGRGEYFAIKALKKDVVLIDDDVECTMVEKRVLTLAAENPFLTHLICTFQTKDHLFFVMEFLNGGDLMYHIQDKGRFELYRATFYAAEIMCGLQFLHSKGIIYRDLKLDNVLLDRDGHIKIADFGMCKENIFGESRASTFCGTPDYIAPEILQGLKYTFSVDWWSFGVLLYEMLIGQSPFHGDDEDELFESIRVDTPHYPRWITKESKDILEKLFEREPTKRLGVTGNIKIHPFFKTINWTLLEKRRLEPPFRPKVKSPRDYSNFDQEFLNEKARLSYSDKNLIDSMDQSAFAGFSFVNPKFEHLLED

MARK3 (human) = MARK3 (human) (UniProt P27448)
MAP3K7 TAB1 (human) = MAP3K7 TAB1 (human) (UniProt O43318+Q15750)
Chain of MAP3K7 TAB1 (human) (O43318 whole entry, looked up): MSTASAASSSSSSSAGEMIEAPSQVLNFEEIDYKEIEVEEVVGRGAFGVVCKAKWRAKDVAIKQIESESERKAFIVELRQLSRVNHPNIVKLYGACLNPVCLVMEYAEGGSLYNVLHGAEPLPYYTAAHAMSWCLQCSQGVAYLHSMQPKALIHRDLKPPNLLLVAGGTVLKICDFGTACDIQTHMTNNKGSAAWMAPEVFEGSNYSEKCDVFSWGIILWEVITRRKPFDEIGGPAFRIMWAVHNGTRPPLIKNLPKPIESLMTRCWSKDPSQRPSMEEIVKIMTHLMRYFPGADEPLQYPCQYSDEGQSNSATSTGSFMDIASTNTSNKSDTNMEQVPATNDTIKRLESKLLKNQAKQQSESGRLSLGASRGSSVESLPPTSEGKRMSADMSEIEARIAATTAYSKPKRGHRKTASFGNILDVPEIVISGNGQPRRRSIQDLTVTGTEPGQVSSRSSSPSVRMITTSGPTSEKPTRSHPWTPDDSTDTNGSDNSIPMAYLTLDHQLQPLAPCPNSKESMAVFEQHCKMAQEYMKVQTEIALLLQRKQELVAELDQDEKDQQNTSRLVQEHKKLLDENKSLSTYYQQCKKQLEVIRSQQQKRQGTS
Chain of MAP3K7 TAB1 (human) (Q15750 whole entry, looked up): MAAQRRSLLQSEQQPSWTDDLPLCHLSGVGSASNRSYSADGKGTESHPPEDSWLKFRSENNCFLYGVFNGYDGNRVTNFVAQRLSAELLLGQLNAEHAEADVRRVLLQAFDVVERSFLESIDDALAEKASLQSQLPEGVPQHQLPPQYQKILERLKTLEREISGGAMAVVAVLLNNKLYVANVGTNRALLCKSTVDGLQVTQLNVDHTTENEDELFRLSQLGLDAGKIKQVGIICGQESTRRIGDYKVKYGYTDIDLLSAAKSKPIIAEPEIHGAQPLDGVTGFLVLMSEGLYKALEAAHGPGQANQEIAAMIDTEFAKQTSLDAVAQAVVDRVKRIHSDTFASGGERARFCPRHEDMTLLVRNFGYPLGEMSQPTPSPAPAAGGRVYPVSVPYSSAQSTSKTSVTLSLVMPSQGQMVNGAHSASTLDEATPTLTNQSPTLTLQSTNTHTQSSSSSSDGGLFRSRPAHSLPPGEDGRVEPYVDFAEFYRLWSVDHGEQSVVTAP

ZAP70 (human) = ZAP70 (human) (UniProt P43403)
NEK4 (human) = NEK4 (human) (UniProt P51957)
DMPK (human) = DMPK (human) (UniProt Q09013)
PRKG1 (human) = PRKG1 (human) (UniProt Q13976)
TSSK2 (human) = TSSK2 (human) (UniProt Q96PF2)
DCLK2 (human) = DCLK2 (human) (UniProt Q8N568)
Chain of DCLK2 (human) (Q8N568 whole entry, looked up): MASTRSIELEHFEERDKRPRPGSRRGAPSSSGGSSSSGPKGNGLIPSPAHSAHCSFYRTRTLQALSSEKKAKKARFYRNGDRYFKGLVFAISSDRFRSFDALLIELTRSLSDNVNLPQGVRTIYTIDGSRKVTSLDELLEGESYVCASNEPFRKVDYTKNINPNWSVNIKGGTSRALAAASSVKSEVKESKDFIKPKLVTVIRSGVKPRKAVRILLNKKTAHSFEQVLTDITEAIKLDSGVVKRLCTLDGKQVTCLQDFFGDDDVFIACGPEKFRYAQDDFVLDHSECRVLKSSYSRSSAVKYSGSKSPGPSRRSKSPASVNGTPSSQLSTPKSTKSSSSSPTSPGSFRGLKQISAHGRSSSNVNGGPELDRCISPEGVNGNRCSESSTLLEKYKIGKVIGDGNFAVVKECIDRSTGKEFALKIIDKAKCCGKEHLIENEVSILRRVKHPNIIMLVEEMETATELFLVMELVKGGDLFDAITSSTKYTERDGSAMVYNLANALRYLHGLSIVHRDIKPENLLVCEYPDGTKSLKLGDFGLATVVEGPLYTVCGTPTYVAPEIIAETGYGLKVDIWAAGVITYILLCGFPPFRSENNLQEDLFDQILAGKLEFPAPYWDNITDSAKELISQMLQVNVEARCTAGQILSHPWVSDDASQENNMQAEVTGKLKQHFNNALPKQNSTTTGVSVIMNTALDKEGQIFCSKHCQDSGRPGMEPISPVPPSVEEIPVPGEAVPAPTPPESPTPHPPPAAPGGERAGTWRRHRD

STK33 (human) = STK33 (human) (UniProt Q9BYT3)
CDK6 CCND1 (human) = CDK6 CCND1 (human) (UniProt Q00534+P24385)
PRKCI (human) = PRKCI (human) (UniProt P41743)
Chain of PRKCI (human) (P41743 whole entry, looked up): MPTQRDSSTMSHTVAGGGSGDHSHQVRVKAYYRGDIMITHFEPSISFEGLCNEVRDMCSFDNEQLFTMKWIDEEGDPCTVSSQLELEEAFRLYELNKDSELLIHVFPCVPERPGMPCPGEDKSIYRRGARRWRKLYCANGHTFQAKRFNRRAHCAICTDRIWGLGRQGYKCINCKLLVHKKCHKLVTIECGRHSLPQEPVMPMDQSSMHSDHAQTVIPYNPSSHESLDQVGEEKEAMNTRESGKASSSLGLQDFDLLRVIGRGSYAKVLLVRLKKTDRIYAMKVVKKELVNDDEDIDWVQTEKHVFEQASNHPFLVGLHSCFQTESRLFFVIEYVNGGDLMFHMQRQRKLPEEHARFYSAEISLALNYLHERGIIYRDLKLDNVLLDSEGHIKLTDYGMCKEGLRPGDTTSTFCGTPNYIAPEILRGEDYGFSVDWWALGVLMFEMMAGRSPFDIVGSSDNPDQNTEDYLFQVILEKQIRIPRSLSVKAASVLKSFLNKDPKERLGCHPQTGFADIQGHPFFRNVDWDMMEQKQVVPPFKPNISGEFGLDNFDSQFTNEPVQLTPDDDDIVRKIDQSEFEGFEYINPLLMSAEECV

TSSK1B (human) = TSSK1B (human) (UniProt Q9BXA7)
MAP2K2 (human) = MAP2K2 (human) (UniProt P36507)
CAMKK2 (human) = CAMKK2 (human) (UniProt Q96RR4)
PRKCH (human) = PRKCH (human) (UniProt P24723)
Chain of PRKCH (human) (P24723 whole entry, looked up): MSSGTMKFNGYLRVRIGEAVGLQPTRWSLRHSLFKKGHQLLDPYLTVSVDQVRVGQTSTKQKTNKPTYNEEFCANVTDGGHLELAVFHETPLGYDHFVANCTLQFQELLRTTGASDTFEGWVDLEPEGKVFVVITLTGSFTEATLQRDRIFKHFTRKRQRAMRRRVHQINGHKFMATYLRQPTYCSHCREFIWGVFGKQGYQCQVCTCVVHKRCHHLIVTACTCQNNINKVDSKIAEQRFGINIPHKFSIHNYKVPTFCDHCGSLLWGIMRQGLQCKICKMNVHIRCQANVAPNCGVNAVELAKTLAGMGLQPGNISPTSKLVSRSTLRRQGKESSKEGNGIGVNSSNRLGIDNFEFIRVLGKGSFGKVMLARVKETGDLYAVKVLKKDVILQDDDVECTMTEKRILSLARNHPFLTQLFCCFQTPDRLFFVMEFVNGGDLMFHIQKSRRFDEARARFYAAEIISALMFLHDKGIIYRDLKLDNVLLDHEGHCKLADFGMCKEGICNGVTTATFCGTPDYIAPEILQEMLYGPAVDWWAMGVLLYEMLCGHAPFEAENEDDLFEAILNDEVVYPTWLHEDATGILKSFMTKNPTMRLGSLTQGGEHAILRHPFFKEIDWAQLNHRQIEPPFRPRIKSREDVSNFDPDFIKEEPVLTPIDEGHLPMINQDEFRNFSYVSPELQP

NEK11 (human) = NEK11 (human) (UniProt Q8NG66)
BMX (human) = BMX (human) (UniProt P51813)
OXSR1 (human) = OXSR1 (human) (UniProt O95747)
MAP3K2 (human) = MAP3K2 (human) (UniProt Q9Y2U5)

## CN(C)C[C@H]1CCn2c(c(C3=C(c4cn(C)c5ccccc45)C(=O)NC3=O)c3ccccc32)C1
STK17A (human)
  residual activity: 87.6%
SYK (human)
  residual activity: 99.6%
MAP4K4 (human)
  residual activity: 82.5%
IRAK1 (human)
  residual activity: 127%
CSNK1D (human)
  residual activity: 101%
BRSK1 (human)
  residual activity: 101%
TAOK2 (human)
  residual activity: 87.7%
MARK2 (human)
  residual activity: 94.9%
PASK (human)
  residual activity: 93%
EPHA7 (human)
  residual activity: 96.9%
GRK6 (human)
  residual activity: 66.4%
AXL (human)
  residual activity: 99.3%
PIM1 (human)
  residual activity: 63.2%
RAF1 (human)
  residual activity: 96.6%
ADRBK1 (human)
  residual activity: 103%
STK16 (human)
  residual activity: 109%
GSG2 (human)
  residual activity: 100%
EGFR (human)
  residual activity: 95.8%
LYN (human)
  residual activity: 100% and 98.3%
FYN (human)
  residual activity: 92.8%
CDK2 CCNE1 (human)
  residual activity: 64.4%
EPHA1 (human)
  residual activity: 100%
PRKCD (human)
  residual activity: 8.11%
MARK3 (human)
  residual activity: 92.4%
MAP3K7 TAB1 (human)
  residual activity: 95.3%
ZAP70 (human)
  residual activity: 105%
NEK4 (human)
  residual activity: 96.7%
DMPK (human)
  residual activity: 106%
PRKG1 (human)
  residual activity: 81% and 88.8%
TSSK2 (human)
  residual activity: 97.1%
DCLK2 (human)
  residual activity: 97.8%
STK33 (human)
  residual activity: 94.8%
CDK6 CCND1 (human)
  residual activity: 70.5%
PRKCI (human)
  residual activity: 36.2%
TSSK1B (human)
  residual activity: 104%
MAP2K2 (human)
  residual activity: 101%
CAMKK2 (human)
  residual activity: 108%
PRKCH (human)
  residual activity: 7.84%
NEK11 (human)
  residual activity: 74.1%
BMX (human)
  residual activity: 91.7%
OXSR1 (human)
  residual activity: 98.4%
MAP3K2 (human)
  residual activity: 94.6%

## O=C1NC(=O)/C(=C\c2ccc3nccnc3c2)S1
STK17A (human)
  residual activity: 94.6%
SYK (human)
  residual activity: 98%
MAP4K4 (human)
  residual activity: 80.9%
IRAK1 (human)
  residual activity: 85.5%
CSNK1D (human)
  residual activity: 96.3%
BRSK1 (human)
  residual activity: 92.4%
TAOK2 (human)
  residual activity: 89.9%
MARK2 (human)
  residual activity: 93%
PASK (human)
  residual activity: 87.7%
EPHA7 (human)
  residual activity: 96.7%
GRK6 (human)
  residual activity: 97%
AXL (human)
  residual activity: 112%
PIM1 (human)
  residual activity: 61.7%
RAF1 (human)
  residual activity: 92.3%
ADRBK1 (human)
  residual activity: 93.3%
STK16 (human)
  residual activity: 91.9%
GSG2 (human)
  residual activity: 38.8%
EGFR (human)
  residual activity: 81.6%
LYN (human)
  residual activity: 99.2% and 99.6%
FYN (human)
  residual activity: 95.3%
CDK2 CCNE1 (human)
  residual activity: 91.8%
EPHA1 (human)
  residual activity: 91.8%
PRKCD (human)
  residual activity: 94.4%
MARK3 (human)
  residual activity: 94.3%
MAP3K7 TAB1 (human)
  residual activity: 98.7%
ZAP70 (human)
  residual activity: 92.4%
NEK4 (human)
  residual activity: 93.1%
DMPK (human)
  residual activity: 112%
PRKG1 (human)
  residual activity: 113% and 98.3%
TSSK2 (human)
  residual activity: 88.7%
DCLK2 (human)
  residual activity: 94.3%
STK33 (human)
  residual activity: 66.3%
CDK6 CCND1 (human)
  residual activity: 97.5%
PRKCI (human)
  residual activity: 98.6%
TSSK1B (human)
  residual activity: 78.6%
MAP2K2 (human)
  residual activity: 93.5%
CAMKK2 (human)
  residual activity: 72.9%
PRKCH (human)
  residual activity: 89.7%
NEK11 (human)
  residual activity: 111%
BMX (human)
  residual activity: 98.6%
OXSR1 (human)
  residual activity: 98.4%
MAP3K2 (human)
  residual activity: 108%

## CC(C)c1nn(-c2c(Cl)cccc2Cl)c2nc(Cc3ccc(OCCO)cc3)nc(O)c12
STK17A (human)
  residual activity: 98.3%
SYK (human)
  residual activity: 98.6%
MAP4K4 (human)
  residual activity: 84.5%
IRAK1 (human)
  residual activity: 99.2%
CSNK1D (human)
  residual activity: 97.1%
BRSK1 (human)
  residual activity: 91.3%
TAOK2 (human)
  residual activity: 93.3%
MARK2 (human)
  residual activity: 88%
PASK (human)
  residual activity: 95.7%
EPHA7 (human)
  residual activity: 97.9%
GRK6 (human)
  residual activity: 101%
AXL (human)
  residual activity: 98%
PIM1 (human)
  residual activity: 99%
RAF1 (human)
  residual activity: 95.8%
ADRBK1 (human)
  residual activity: 94.8%
STK16 (human)
  residual activity: 83.8%
GSG2 (human)
  residual activity: 94.3%
EGFR (human)
  residual activity: 95.2%
LYN (human)
  residual activity: 102% and 92.7%
FYN (human)
  residual activity: 102%
CDK2 CCNE1 (human)
  residual activity: 8.6%
EPHA1 (human)
  residual activity: 95%
PRKCD (human)
  residual activity: 108%
MARK3 (human)
  residual activity: 92.2%
MAP3K7 TAB1 (human)
  residual activity: 98.5%
ZAP70 (human)
  residual activity: 103%
NEK4 (human)
  residual activity: 96.3%
DMPK (human)
  residual activity: 99.3%
PRKG1 (human)
  residual activity: 92.3% and 99%
TSSK2 (human)
  residual activity: 105%
DCLK2 (human)
  residual activity: 95.9%
STK33 (human)
  residual activity: 97.5%
CDK6 CCND1 (human)
  residual activity: 19.8%
PRKCI (human)
  residual activity: 95.2%
TSSK1B (human)
  residual activity: 104%
MAP2K2 (human)
  residual activity: 98.5%
CAMKK2 (human)
  residual activity: 90.9%
PRKCH (human)
  residual activity: 87.4%
NEK11 (human)
  residual activity: 109%
BMX (human)
  residual activity: 104%
OXSR1 (human)
  residual activity: 93.8%
MAP3K2 (human)
  residual activity: 94.7%

## Cc1nc2cc3nc(-c4cccs4)cnc3cc2n1C
STK17A (human)
  residual activity: 80.5%
SYK (human)
  residual activity: 94.3%
MAP4K4 (human)
  residual activity: 84.5%
IRAK1 (human)
  residual activity: 113%
CSNK1D (human)
  residual activity: 95.9%
BRSK1 (human)
  residual activity: 98.7%
TAOK2 (human)
  residual activity: 99.7%
MARK2 (human)
  residual activity: 81.4%
PASK (human)
  residual activity: 110%
EPHA7 (human)
  residual activity: 92.5%
GRK6 (human)
  residual activity: 104%
AXL (human)
  residual activity: 109%
PIM1 (human)
  residual activity: 103%
RAF1 (human)
  residual activity: 104%
ADRBK1 (human)
  residual activity: 83.7%
STK16 (human)
  residual activity: 95.2%
GSG2 (human)
  residual activity: 108%
EGFR (human)
  residual activity: 104%
LYN (human)
  residual activity: 117% and 97.8%
FYN (human)
  residual activity: 107%
CDK2 CCNE1 (human)
  residual activity: 91.4%
EPHA1 (human)
  residual activity: 87.1%
PRKCD (human)
  residual activity: 78.6%
MARK3 (human)
  residual activity: 105%
MAP3K7 TAB1 (human)
  residual activity: 92.5%
ZAP70 (human)
  residual activity: 93.3%
NEK4 (human)
  residual activity: 95.2%
DMPK (human)
  residual activity: 100%
PRKG1 (human)
  residual activity: 98.5% and 99.7%
TSSK2 (human)
  residual activity: 98.2%
DCLK2 (human)
  residual activity: 104%
STK33 (human)
  residual activity: 91.5%
CDK6 CCND1 (human)
  residual activity: 99.3%
PRKCI (human)
  residual activity: 99.1%
TSSK1B (human)
  residual activity: 91.3%
MAP2K2 (human)
  residual activity: 77.5%
CAMKK2 (human)
  residual activity: 112%
PRKCH (human)
  residual activity: 96.8%
NEK11 (human)
  residual activity: 93.1%
BMX (human)
  residual activity: 117%
OXSR1 (human)
  residual activity: 99.4%
MAP3K2 (human)
  residual activity: 90.2%
